Measurements reported in patent US12642797B2, “Coated granule, solid dispersion, and preparation containing vortioxetine hydrobromide for oral taste masking” (Seasons Biotechnology (Taizhou) Co., Ltd., priority 2019, dated 2026).
Counter-ions that a name gives are not always drawn.

Assays:
tongue = test: Comparative Example 1: comparison of taste of different vortioxetine salts (10 subjects, 30 attempts); settings: converted to the same amount of C18H22N2S
Protocol: The vortioxetine lactate salt, vortioxetine hydrobromide and vortioxetine hemihydrobromide equivalent to 5 mg of vortioxetine respectively over 100 mesh powders were put directly in front of the upper part of the tongue for one minute. There were 10 subjects in each salt-type group, and each subject randomly tried each salt-type 3 times. After trying one salt-type taste, rinsed your mouth, and try another salt-type after there was no irritation. After trying the taste, record the bitterness level and tongue irritation, spit it out a few seconds later, rinse your mouth, record the time for the irritation to subside, eat 1-1.5 hours later, and record the irritation again.

oral cavity and tongue = test: Taste and irritation test by subjects (self-made sample vs reference sample); format: in vivo, human; settings: for Instantaneous irritation: 0-1 minute; for Instantaneous irritation / Delayed irritation: powder equivalent to 20 mg of vortioxetine tasted, hemihydrobromide
Protocol: In the examples, the taste masking effects of test samples were evaluated by the subject's perception of the bitterness and irritation of the oral cavity and tongue. The Taste and Irritation Classification Tested by the Subjects: [table]

[1] = Subject 1, listed as Reference sample (1a)
[2] = Subject 1, listed as Reference sample (1e)
[3] = Subject 1, listed as Reference sample (2a)
[4] = Subject 1, listed as Reference sample (2c)
[5] = Subject 1, listed as Reference sample (3a)
[6] = Subject 1, listed as Reference sample (3b)
[7] = Subject 1, listed as Reference sample (3c)
[8] = Subject 1, listed as Reference sample (4a)
[9] = Subject 1, listed as Reference sample (1d)
[10] = Subject 1, listed as Reference sample (2d)
[11] = Subject 2, listed as Reference sample (1a)
[12] = Subject 2, listed as Reference sample (1e)
[13] = Subject 2, listed as Reference sample (2a)
[14] = Subject 2, listed as Reference sample (2c)
[15] = Subject 2, listed as Reference sample (3a)
[16] = Subject 2, listed as Reference sample (3b)
[17] = Subject 2, listed as Reference sample (3c)
[18] = Subject 2, listed as Reference sample (4a)
[19] = Subject 2, listed as Reference sample (1d)
[20] = Subject 2, listed as Reference sample (2d)
[21] = Subject 3, listed as Reference sample (1a)
[22] = Subject 3, listed as Reference sample (1e)
[23] = Subject 3, listed as Reference sample (2a)
[24] = Subject 3, listed as Reference sample (2c)
[25] = Subject 3, listed as Reference sample (3a)
[26] = Subject 3, listed as Reference sample (3b)
[27] = Subject 3, listed as Reference sample (3c)
[28] = Subject 3, listed as Reference sample (4a)
[29] = Subject 3, listed as Reference sample (1d)
[30] = Subject 3, listed as Reference sample (2d)

Cc1ccc(Sc2ccccc2N2CCNCC2)c(C)c1 [vortioxetine hemihydrobromide]
Irritation compared with vortioxetine hydrobromide, in words (tongue): significantly less irritating
Irritation, overall comparison in words (oral cavity and tongue; 5 subjects, treated powder vs untreated 100-mesh salt powder, each equivalent to 20 mg vortioxetine): obvious and could hardly be tolerated
Instantaneous irritation (oral cavity and tongue; [1]): ++ (+ + Irritating, tolerable)
Instantaneous irritation (oral cavity and tongue; [2]): ++ (+ + Irritating, tolerable)
Instantaneous irritation (oral cavity and tongue; [3]): +++ (+ + + Strong irritation, intolerable)
Instantaneous irritation (oral cavity and tongue; [4]): +++ (+ + + Strong irritation, intolerable)
Instantaneous irritation (oral cavity and tongue; [5]): +++ (+ + + Strong irritation, intolerable)
Instantaneous irritation (oral cavity and tongue; [6]): +++ (+ + + Strong irritation, intolerable)
Instantaneous irritation (oral cavity and tongue; [7]): +++ (+ + + Strong irritation, intolerable)
Instantaneous irritation (oral cavity and tongue; [8]): +++ (+ + + Strong irritation, intolerable)
Instantaneous irritation (oral cavity and tongue; [9]): ++ (+ + Irritating, tolerable)
Instantaneous irritation (oral cavity and tongue; [10]): ++ (+ + Irritating, tolerable)
Delayed irritation (oral cavity and tongue; [1]): >30 min
Delayed irritation (oral cavity and tongue; [2]): 15 to 30 min
Delayed irritation (oral cavity and tongue; [3]): >30 min
Delayed irritation (oral cavity and tongue; [4]): >30 min
Delayed irritation (oral cavity and tongue; [5]): >30 min
Delayed irritation (oral cavity and tongue; [6]): >30 min
Delayed irritation (oral cavity and tongue; [7]): >30 min
Delayed irritation (oral cavity and tongue; [8]): >30 min
Delayed irritation (oral cavity and tongue; Subject 1, listed as Reference sample (5)): 15 to 30 min
Delayed irritation (oral cavity and tongue; Subject 1, listed as Reference sample (6)): 15 to 30 min
Delayed irritation (oral cavity and tongue; Subject 1, listed as Reference sample (7a)): >30 min
Delayed irritation (oral cavity and tongue; Subject 1, listed as Reference sample (8a)): 15 to 30 min
Delayed irritation (oral cavity and tongue; Subject 1, listed as Reference sample (8b)): 15 to 30 min
Delayed irritation (oral cavity and tongue; [9]): 15 to 30 min
Delayed irritation (oral cavity and tongue; [10]): >30 min
Instantaneous irritation (oral cavity and tongue; [11]): +++ (+ + + Strong irritation, intolerable)
Instantaneous irritation (oral cavity and tongue; [12]): +++ (+ + + Strong irritation, intolerable)
Instantaneous irritation (oral cavity and tongue; [13]): ++ (+ + Irritating, tolerable)
Instantaneous irritation (oral cavity and tongue; [14]): ++ (+ + Irritating, tolerable)
Instantaneous irritation (oral cavity and tongue; [15]): ++ (+ + Irritating, tolerable)
Instantaneous irritation (oral cavity and tongue; [16]): ++ (+ + Irritating, tolerable)
Instantaneous irritation (oral cavity and tongue; [17]): ++ (+ + Irritating, tolerable)
Instantaneous irritation (oral cavity and tongue; [18]): ++ (+ + Irritating, tolerable)
Instantaneous irritation (oral cavity and tongue; [19]): +++ (+ + + Strong irritation, intolerable)
Instantaneous irritation (oral cavity and tongue; [20]): ++ (+ + Irritating, tolerable)
Delayed irritation (oral cavity and tongue; [11]): >30 min
Delayed irritation (oral cavity and tongue; [12]): >30 min
Delayed irritation (oral cavity and tongue; [13]): 15 to 30 min
Delayed irritation (oral cavity and tongue; [14]): 15 to 30 min
Delayed irritation (oral cavity and tongue; [15]): 15 to 30 min
Delayed irritation (oral cavity and tongue; [16]): 15 to 30 min
Delayed irritation (oral cavity and tongue; [17]): 15 to 30 min
Delayed irritation (oral cavity and tongue; [18]): 15 to 30 min
Delayed irritation (oral cavity and tongue; Subject 2, listed as Reference sample (5)): >30 min
Delayed irritation (oral cavity and tongue; Subject 2, listed as Reference sample (6)): >30 min
Delayed irritation (oral cavity and tongue; Subject 2, listed as Reference sample (7a)): 15 to 30 min
Delayed irritation (oral cavity and tongue; Subject 2, listed as Reference sample (8a)): 15 to 30 min
Delayed irritation (oral cavity and tongue; Subject 2, listed as Reference sample (8b)): 15 to 30 min
Delayed irritation (oral cavity and tongue; [19]): >30 min
Delayed irritation (oral cavity and tongue; [20]): 15 to 30 min
Instantaneous irritation (oral cavity and tongue; [21]): +++ (+ + + Strong irritation, intolerable)
Instantaneous irritation (oral cavity and tongue; [22]): +++ (+ + + Strong irritation, intolerable)
Instantaneous irritation (oral cavity and tongue; [23]): +++ (+ + + Strong irritation, intolerable)
Instantaneous irritation (oral cavity and tongue; [24]): +++ (+ + + Strong irritation, intolerable)
Instantaneous irritation (oral cavity and tongue; [25]): ++ (+ + Irritating, tolerable)
Instantaneous irritation (oral cavity and tongue; [26]): ++ (+ + Irritating, tolerable)
Instantaneous irritation (oral cavity and tongue; [27]): ++ (+ + Irritating, tolerable)
Instantaneous irritation (oral cavity and tongue; [28]): +++ (+ + + Strong irritation, intolerable)
Instantaneous irritation (oral cavity and tongue; [29]): +++ (+ + + Strong irritation, intolerable)
Instantaneous irritation (oral cavity and tongue; [30]): +++ (+ + + Strong irritation, intolerable)
Delayed irritation (oral cavity and tongue; [21]): >30 min
Delayed irritation (oral cavity and tongue; [22]): >30 min
Delayed irritation (oral cavity and tongue; [23]): 1 to 15 min
Delayed irritation (oral cavity and tongue; [24]): 1 to 15 min
Delayed irritation (oral cavity and tongue; [25]): >30 min
Delayed irritation (oral cavity and tongue; [26]): >30 min
Delayed irritation (oral cavity and tongue; [27]): >30 min
Delayed irritation (oral cavity and tongue; [28]): >30 min
Delayed irritation (oral cavity and tongue; Subject 3, listed as Reference sample (5)): 15 to 30 min
Delayed irritation (oral cavity and tongue; Subject 3, listed as Reference sample (6)): 15 to 30 min
Delayed irritation (oral cavity and tongue; Subject 3, listed as Reference sample (7a)): 15 to 30 min
Delayed irritation (oral cavity and tongue; Subject 3, listed as Reference sample (8a)): >30 min
Delayed irritation (oral cavity and tongue; Subject 3, listed as Reference sample (8b)): >30 min
Delayed irritation (oral cavity and tongue; [29]): >30 min
Delayed irritation (oral cavity and tongue; [30]): 1 to 15 min
Instantaneous irritation (oral cavity and tongue; Subject 4, listed as Reference sample (1a)): ++ (+ + Irritating, tolerable)
